#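 Compound exposure: 48 hours, 5 concentrations, 96-well plates. GI50: concentration for 50% inhibition of growth. At the TGI there is no net growth.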
# Assays:
# Assay in all cases: DTP human tumour cell line panel, 48 h
# [1] = tested on: SN12C renal
# [2] = tested on: IGROV1 ovarian
# [3] = tested on: LOX IMVI melanoma
# [4] = tested on: M14 melanoma
# [5] = tested on: NCI-H23 lung
# [6] = tested on: SK-MEL-2 melanoma
# [7] = tested on: HL-60(TB) leukemia
# [8] = tested on: KM12 colon
# [9] = tested on: CAKI-1 renal
# [10] = tested on: UACC-257 melanoma
# [11] = tested on: HCT-15 colon
# [12] = tested on: KM20L2 colon
# [13] = tested on: K-562 leukemia
# [14] = tested on: SNB-75 CNS
# [15] = tested on: SNB-19 CNS
# [16] = tested on: HT29 colon
# [17] = tested on: OVCAR-4 ovarian
# [18] = tested on: MOLT-4 leukemia
# [19] = tested on: OVCAR-3 ovarian
# [20] = tested on: DMS 114 small cell lung
# [21] = tested on: HOP-92 NSCLC
# [22] = tested on: RPMI-8226 leukemia
# [23] = tested on: SK-MEL-28 melanoma
# [24] = tested on: RXF 393 renal
# [25] = tested on: OVCAR-5 ovarian
# [26] = tested on: LXFL 529 NSCLC
# [27] = tested on: SF-295 CNS
# [28] = tested on: M19-MEL melanoma
# [29] = tested on: UO-31 renal
# [30] = tested on: SF-539 CNS
# [31] = tested on: MALME-3M melanoma
# [32] = tested on: NCI-H460 lung
# [33] = tested on: ACHN renal
# [34] = tested on: HOP-62 NSCLC
# [35] = tested on: NCI-H522 lung
# [36] = tested on: SR leukemia
# [37] = tested on: EKVX NSCLC
# [38] = tested on: CCRF-CEM leukemia
# [39] = tested on: A498 renal
# [40] = tested on: U251 CNS
# [41] = tested on: DLD-1 colon
# [42] = tested on: DMS 273 small cell lung
# [43] = tested on: A549 NSCLC
# [44] = tested on: SK-OV-3 ovarian
# [45] = tested on: 786-0 renal
# [46] = tested on: SK-MEL-5 melanoma
# [47] = tested on: SW-620 colon
# [48] = tested on: UACC-62 melanoma
# [49] = tested on: HOP-18 NSCLC
# [50] = tested on: SF-268 CNS
# [51] = tested on: NCI-H226 lung
# [52] = tested on: HCC-2998 colon
# [53] = tested on: OVCAR-8 ovarian
# [54] = tested on: HCT-116 colon
# [55] = tested on: TK-10 renal
# [56] = tested on: COLO 205 colon
smiles,measurement,setting,value
Cc1ccc(-c2cc(=O)c3cc4c(cc3[nH]2)OCO4)cc1,TGI,[1],> 100 µM
same,TGI,[2],> 100 µM
same,TGI,[3],> 100 µM
same,TGI,[4],> 22 µM
same,TGI,[5],3.29 µM
same,TGI,[6],14.2 µM
same,TGI,[7],2.77 µM
same,TGI,[8],> 100 µM
same,TGI,[9],> 100 µM
same,TGI,[10],> 100 µM
same,TGI,[11],6.64 µM
same,TGI,[12],3.43 µM
same,TGI,[13],> 100 µM
same,TGI,[14],35 µM
same,TGI,[15],> 100 µM
same,TGI,[16],> 100 µM
same,TGI,[17],> 100 µM
same,TGI,[18],> 42.6 µM
same,TGI,[19],> 100 µM
same,TGI,[20],> 100 µM
same,TGI,[21],71.2 µM
same,TGI,[22],> 100 µM
same,TGI,[23],> 100 µM
same,TGI,[24],9.94 µM
same,TGI,[25],> 82.3 µM
same,TGI,[26],21.8 µM
same,TGI,[27],11.6 µM
same,TGI,[28],> 100 µM
same,TGI,[29],> 100 µM
same,TGI,[30],4.54 µM
same,TGI,[31],> 33.4 µM
same,TGI,[32],3.82 µM
same,TGI,[33],> 100 µM
same,TGI,[34],20.5 µM
same,TGI,[35],4.83 µM
same,TGI,[36],> 40.4 µM
same,TGI,[37],> 100 µM
same,TGI,[38],> 100 µM
same,TGI,[39],10.5 µM
same,TGI,[40],10.5 µM
same,TGI,[41],> 100 µM
same,TGI,[42],> 25 µM
same,TGI,[43],> 63.4 µM
same,TGI,[44],28.9 µM
same,TGI,[45],14.6 µM
same,TGI,[46],5.6 µM
same,TGI,[47],> 100 µM
same,TGI,[48],> 39.1 µM
same,TGI,[49],35.2 µM
same,TGI,[50],> 72.1 µM
same,TGI,[51],8.66 µM
same,TGI,[52],5.56 µM
same,TGI,[53],> 100 µM
same,TGI,[54],> 100 µM
same,TGI,[55],> 60.6 µM
Cc1ccc(S(=O)(=O)OCC23CCC(C2)C2CC23)cc1 (configuration not stated),TGI,[1],> 100 µM
same,TGI,[2],> 100 µM
same,TGI,[3],> 100 µM
same,TGI,[4],> 100 µM
same,TGI,[5],> 100 µM
same,TGI,[7],98.8 µM
same,TGI,[9],> 100 µM
same,TGI,[10],> 100 µM
same,TGI,[11],> 100 µM
same,TGI,[12],> 100 µM
same,TGI,[13],> 100 µM
same,TGI,[15],> 100 µM
same,TGI,[16],> 100 µM
same,TGI,[17],> 100 µM
same,TGI,[18],> 100 µM
same,TGI,[19],> 100 µM
same,TGI,[20],> 100 µM
same,TGI,[21],94.8 µM
same,TGI,[22],> 100 µM
same,TGI,[23],> 100 µM
same,TGI,[25],> 100 µM
same,TGI,[26],> 100 µM
same,TGI,[27],> 100 µM
same,TGI,[28],> 100 µM
same,TGI,[29],> 100 µM
same,TGI,[31],> 100 µM
same,TGI,[32],> 100 µM
same,TGI,[33],> 100 µM
same,TGI,[34],> 100 µM
same,TGI,[36],> 100 µM
same,TGI,[56],> 100 µM
same,TGI,[38],> 100 µM
same,TGI,[39],> 100 µM
same,TGI,[40],> 100 µM
same,TGI,[41],> 100 µM
same,TGI,[42],> 100 µM
same,TGI,[43],> 100 µM
same,TGI,[44],> 100 µM
same,TGI,[45],> 100 µM
same,TGI,[46],> 100 µM
same,TGI,[47],> 100 µM
same,TGI,[48],> 100 µM
same,TGI,[49],> 100 µM
same,TGI,[50],> 100 µM
same,TGI,[51],> 100 µM
same,TGI,[52],> 100 µM
same,TGI,[53],> 100 µM
same,TGI,[54],> 100 µM
same,TGI,[55],> 100 µM
C1C[OH+]CCNCC[OH+]CC[OH+]CCN1.O.[Cl-].[Pt+4],GI50,[1],> 100 µM
same,TGI,[1],> 100 µM
same,GI50,[2],> 100 µM
same,TGI,[2],> 100 µM
same,GI50,[3],> 100 µM
same,TGI,[3],> 100 µM
same,GI50,[4],> 10 µM
same,TGI,[4],> 10 µM
same,GI50,[6],> 100 µM
same,TGI,[6],> 100 µM
same,GI50,[7],> 100 µM
same,TGI,[7],> 100 µM
same,GI50,[8],> 100 µM
same,TGI,[8],> 100 µM
same,GI50,[9],> 100 µM
same,TGI,[9],> 100 µM
same,GI50,[10],> 100 µM
same,TGI,[10],> 100 µM
same,GI50,[11],> 100 µM
same,TGI,[11],> 100 µM
same,GI50,[12],> 100 µM
same,TGI,[12],> 100 µM
same,GI50,[13],> 100 µM
same,TGI,[13],> 100 µM
same,GI50,[14],> 100 µM
same,TGI,[14],> 100 µM
same,GI50,[15],> 100 µM
same,TGI,[15],> 100 µM
same,GI50,[16],> 100 µM
same,TGI,[16],> 100 µM
same,GI50,[17],> 100 µM
same,TGI,[17],> 100 µM
same,GI50,[18],> 100 µM
same,TGI,[18],> 100 µM
same,GI50,[19],> 100 µM
same,TGI,[19],> 100 µM
same,GI50,[21],> 10 µM
same,TGI,[21],> 10 µM
same,GI50,[22],> 100 µM
same,TGI,[22],> 100 µM
same,GI50,[23],> 100 µM
same,TGI,[23],> 100 µM
same,GI50,[26],> 100 µM
same,TGI,[26],> 100 µM
same,GI50,[27],> 100 µM
same,TGI,[27],> 100 µM
same,GI50,[29],> 100 µM
same,TGI,[29],> 100 µM
same,GI50,[30],> 100 µM
same,TGI,[30],> 100 µM
same,GI50,[31],> 100 µM
same,TGI,[31],> 100 µM
same,GI50,[32],> 100 µM
same,TGI,[32],> 100 µM
same,GI50,[33],> 100 µM
same,TGI,[33],> 100 µM
same,GI50,[34],> 100 µM
same,TGI,[34],> 100 µM
same,GI50,[56],> 100 µM
same,TGI,[56],> 100 µM
same,GI50,[38],> 100 µM
same,TGI,[38],> 100 µM
same,GI50,[39],> 100 µM
same,TGI,[39],> 100 µM
same,GI50,[40],> 100 µM
same,TGI,[40],> 100 µM
same,GI50,[41],> 100 µM
same,TGI,[41],> 100 µM
same,GI50,[42],> 100 µM
same,TGI,[42],> 100 µM
same,GI50,[43],> 100 µM
same,TGI,[43],> 100 µM
same,GI50,[44],> 100 µM
same,TGI,[44],> 100 µM
same,GI50,[45],> 100 µM
same,TGI,[45],> 100 µM
same,GI50,[46],> 100 µM
same,TGI,[46],> 100 µM
same,GI50,[47],> 100 µM
same,TGI,[47],> 100 µM
same,GI50,[48],> 100 µM
same,TGI,[48],> 100 µM
same,GI50,[49],> 100 µM
same,TGI,[49],> 100 µM
same,GI50,[50],> 100 µM
same,TGI,[50],> 100 µM
same,GI50,[51],> 100 µM
same,TGI,[51],> 100 µM
same,GI50,[52],> 100 µM
same,TGI,[52],> 100 µM
same,GI50,[53],> 100 µM
same,TGI,[53],> 100 µM
same,GI50,[54],> 100 µM
same,TGI,[54],> 100 µM
same,GI50,[55],> 100 µM
same,TGI,[55],> 100 µM
N#CC1(C#N)C(c2ccc(C3C(C#N)(C#N)C3(C#N)C#N)cc2)C1(C#N)C#N,TGI,[1],> 100 µM
same,TGI,[2],> 100 µM
same,TGI,[3],> 100 µM
same,TGI,[4],> 100 µM
same,TGI,[5],> 100 µM
same,TGI,[6],> 100 µM
same,TGI,[7],> 100 µM
same,TGI,[8],> 100 µM
same,TGI,[9],> 100 µM
same,TGI,[10],> 100 µM
same,TGI,[11],> 100 µM
same,TGI,[12],> 100 µM
same,TGI,[13],> 100 µM
same,TGI,[14],> 100 µM
same,TGI,[15],> 100 µM
same,TGI,[16],> 100 µM
same,TGI,[17],> 100 µM
same,TGI,[18],> 100 µM
same,TGI,[19],> 100 µM
same,TGI,[20],> 100 µM
same,TGI,[21],> 100 µM
same,TGI,[22],> 100 µM
same,TGI,[23],> 100 µM
same,TGI,[24],> 100 µM
same,TGI,[25],> 100 µM
same,TGI,[26],> 100 µM
same,TGI,[27],> 100 µM
same,TGI,[28],> 100 µM
same,TGI,[29],> 100 µM
same,TGI,[30],> 100 µM
same,TGI,[31],> 100 µM
same,TGI,[32],> 100 µM
same,TGI,[33],> 100 µM
same,TGI,[34],> 100 µM
same,TGI,[35],> 100 µM
same,TGI,[37],> 100 µM
same,TGI,[56],> 100 µM
same,TGI,[38],> 100 µM
same,TGI,[40],> 100 µM
same,TGI,[41],> 100 µM
same,TGI,[42],> 100 µM
same,TGI,[43],> 100 µM
same,TGI,[44],> 100 µM
same,TGI,[45],> 100 µM
same,TGI,[46],> 100 µM
same,TGI,[47],> 100 µM
same,TGI,[48],> 100 µM
same,TGI,[49],> 100 µM
same,TGI,[50],> 100 µM
same,TGI,[52],> 100 µM
same,TGI,[53],> 100 µM
same,TGI,[55],> 100 µM
